Reference: patent publication US20240246943A1, “MULTIFACETED APPROACH TO NOVEL INTERLEUKIN-6 INHIBITORS” (UNIVERSITY OF FLORIDA RESEARCH FOUNDATION, INCORPORATED, priority 2021, published 2024)
Where two headings read alike, the source gives them in different places. Marks after values point to notes of the source that are not given here.

How the values were obtained:
Assay type in all cases: cell-based
[1] = system: SUM159 breast cancer cells; assay: MTT cell viability assay, SUM159; conditions: for IC50 / IC50 Values in Breast Cancer Cell Lines, SUM159 / SUM159 IC50: 72 hours, Inactive = no measurable activity at 20 μM
Procedure: (§1) Cell viability of MDA-MB-231 breast cancer cells was evaluated by using the MTT assay in triple replicates in one experiment and repeated for three times (FIG. 3). MDA-MB-231 SUM159, SUM159 gp140ko, MDA-MB-231 breast cancer cells or SUM149 or HCC1937 BRCA mutant breast cancer cells were seeded in 96-well plates at a density of 3,000 cells per well. The cells were incubated at 37° C. for a period of 24 hours. Escalating concentrations of IL-6/gp130 inhibitors (e.g., compounds of Formula (A), (B), (C), (D), (E), or (F) including LLM-418, bazedoxifene, LS-28-3, and COMP-D (LS-101-D)) were added in triplicate to the plates in the presence of 10% FBS. After incubation for 72 hours (unless otherwise noted), a stock solution of MTT (0.5 mg/ml) was then added to each well containing the treated cells, followed by incubation at 37° C. for 3 h. After removal of medium, the MTT dye was dissolved with spectrophotometric grade DMSO and the absorbance was read at 570 nm. The IC50 value is determined by interpolation based on the absorbance value halfway between positive and negative controls.

[2] = system: MDA-MB-231 breast cancer cells; assay: MTT cell viability assay, MDA-MB-231
Procedure: as §1, with “MDA-MB-231 SUM159, SUM159 gp140ko, MDA-MB-231 breast cancer cells or SUM149 or HCC1937 BRCA mutant breast cancer cells were seeded in 96-well plates at a density of 3,000 cells per well.” left out

[3] = system: MDA-MB-231 Bone Metastatic breast cancer cells; assay: MTT cell viability assay, MDA-MB-231 Bone Metastatic; conditions: 72 hours
Procedure: as §1, with “MDA-MB-231 SUM159, SUM159 gp140ko, MDA-MB-231 breast cancer cells or SUM149 or HCC1937 BRCA mutant breast cancer cells were seeded in 96-well plates at a density of 3,000 cells per well.” left out

[4] = system: SUM159 gp130ko breast cancer cells; assay: MTT cell viability assay, SUM159 gp130ko; conditions: 72 hours, read-out: IC50 Values in Breast Cancer Cell Lines, SUM159 gp130ko
Procedure: as §1, with “MDA-MB-231 SUM159, SUM159 gp140ko, MDA-MB-231 breast cancer cells or SUM149 or HCC1937 BRCA mutant breast cancer cells were seeded in 96-well plates at a density of 3,000 cells per well.” left out

IL-6 induced p-STAT3 = assay: Selectivity study, western blot, T47D cells, IL-6 stimulation; conditions: T47D breast cancer cells, compound 2 hours, then cytokine 30 minutes
Procedure: (§2) Cells were harvested and lysed in cold radioimmunoprecipitation assay (RIPA) lysis buffer containing proteasome inhibitor cocktail and phosphatase inhibitor cocktail. The protein concentrations were determined using the BCA Protein Assay kit. After adding the loading buffer and boiling at 95° C. for 10 minutes, equivalent amounts of proteins were loaded on and separated by SDS-PAGE, and then were transferred to PVDF membranes. Membranes were probed with primary antibodies (1:1000) against gp130 and GAPDH. Membranes were analyzed using Enhanced Chemiluminescence Plus reagents and either scanned with the Storm Scanner (Amersham Pharmacia Biotech, Inc., Piscataway, NJ) or imaged with ChemiDoc MP imaging system (Bio-Rad, Hercules, CA).
(§3) Inhibition of downstream STAT3 phosphorylation was performed. T47D breast cancer cells, which lack endogenous IL-6, were treated with LLM418-MCBu for 2 hours. Then, cytokine was administered for 30 minutes (IL-6, INF, LIF, or OSM). Western blot conducted afterwards to assess dose-dependent inhibition of IL-6 signaling (or lack thereof) (FIG. 5).

induced p-STAT1 = assay: Selectivity study, western blot, T47D cells, IFN stimulation; conditions: T47D breast cancer cells, compound, then cytokine
Procedure: as §2, §3

[5] = SUM159, Table 3 batch studies (independent from Table 1), read-out: SUM159 IC50
[6] = Homo sapiens, MDA-MB-231, Table 3 batch studies (independent from Table 1), MTT, 72 hours, Inactive = no measurable activity at 20 μM, read-out: MDA-MB-231 IC50
[7] = SUM159, Table 1 batch studies, read-out: IC50 Values in Breast Cancer Cell Lines, SUM159
[8] = Homo sapiens, MDA-MB-231, Table 1 batch studies, MTT, 72 hours, Inactive = no measurable activity at 20 μM, read-out: IC50 Values in Breast Cancer Cell Lines, MDA-MB-231
[9] = Table 1 batch studies, read-out: IC50 Values in Breast Cancer Cell Lines, SUM159
[10] = Table 3 batch studies (independent from Table 1), read-out: SUM159 IC50
[11] = Table 1 batch studies, MTT, 72 hours, Inactive = no measurable activity at 20 μM, read-out: IC50 Values in Breast Cancer Cell Lines, MDA-MB-231
[12] = Table 3 batch studies (independent from Table 1), MTT, 72 hours, Inactive = no measurable activity at 20 μM, read-out: MDA-MB-231 IC50
[13] = Homo sapiens, MDA-MB-231, Table 1 batch studies, read-out: IC50 Values in Breast Cancer Cell Lines, MDA-MB-231 Bone Metastatic
[14] = Homo sapiens, MDA-MB-231, Table 3 batch studies (independent from Table 1), read-out: MDA-MB-231 Bone Metastatic IC50
[15] = Table 3 batch studies (independent from Table 1)
[16] = Table 1 batch studies, MTT, 72 hours, Inactive = no measurable activity at 20 μM
[17] = Table 3 batch studies (independent from Table 1), MTT, 72 hours, Inactive = no measurable activity at 20 μM

Cc1c(-c2ccc(O)cc2)n(Cc2ccc(OCCN3CCCCCC3)cc2)c2ccc(O)cc12 [Bazedoxifene, bazedoxifene, reference compound]
IC50 [1, 5]: 7.1 µM | IC50 [2, 6]: 12 µM

O=C(Nc1ccccc1-n1cccc1)c1ccc(OCCCN2CCCCC2)cc1 [LLM4-S1, N-(2-(1H-pyrrol-1-yl)phenyl)-4-(3-(piperidin-1-yl)propoxy)benzamide]
IC50 [1, 7]: 58.7 µM | IC50 [1, 5]: 58.7 µM | IC50 [2, 8]: 53.1 µM | IC50 [2, 6]: 53.1 µM

O=C(Nc1cc(F)ccc1N1CCCC1)c1ccc(OCCCN2CCCCC2)cc1 [LLM4-S2, N-(5-fluoro-2-(pyrrolidin-1-yl)phenyl)-4-(3-(piperidin-1-yl)propoxy)benzamide]
IC50 [1, 7]: 24.7 µM | IC50 [1, 5]: 24.7 µM | IC50 [2, 8]: 47.8 µM | IC50 [2, 6]: 47.8 µM

O=C(Nc1ccccc1N1CCCC1)c1ccc(OCCCN2CCCCC2)cc1 [LLM4-S3, 4-(3-(piperidin-1-yl)propoxy)-N-(2-(pyrrolidin-1-yl)phenyl)benzamide]
IC50 [1, 7]: 46.1 µM | IC50 [1, 5]: 46.1 µM | IC50 [2, 8]: 49.1 µM | IC50 [2, 6]: 49.1 µM

O=C(Nc1cc(F)ccc1-n1cccc1)c1ccc(OCCCN2CCCCC2)cc1 [LLM4]
IC50 [1, 9]: 31.1 µM | IC50 [1, 10]: 31.1 µM | IC50 [2, 11]: 47.7 µM | IC50 [2, 12]: 47.7 µM

O=C(Nc1ccccc1-c1ccn[nH]1)c1ccc(OCCN2CCCCC2)cc1 [LLM418, N-(2-(1H-pyrazol-5-yl)phenyl)-4-(2-(piperidin-1-yl)ethoxy)benzamide]
IC50 [1, 7]: 16.3 µM | IC50 [1, 5]: 16.3 µM | IC50 [2, 8]: 25.1 µM | IC50 [2, 6]: 28.1 µM | IC50 [3, 13]: 23.7 µM | IC50 [3, 14]: 23.7 µM | IC50 ([4]; SUM159, Table 1 batch studies): 22.5 µM

CCn1ccc(-c2ccccc2NC(=O)c2ccc(OCCN3CCCCC3)cc2)n1 [LLM418-Et, N-(2-(1-ethyl-1H-pyrazol-3-yl)phenyl)-4-(2-(piperidin-1-yl)ethoxy)benzamide]
IC50 [1, 7]: 13.5 µM | IC50 [1, 5]: 17.4 µM | Inhibition of IL-6 induced p-STAT3 (IL-6 induced p-STAT3): inhibit both IL-6 induced p-STAT3 and IFN-7 induced p-STAT1 | IC50 [2, 8]: 17.5 µM | IC50 [2, 6]: 17.5 µM | IC50 [3, 13]: 16.8 µM | IC50 [3, 14]: 16.8 µM | Inhibition of IFN-7 induced p-STAT1 (induced p-STAT1): inhibit both IL-6 induced p-STAT3 and IFN-7 induced p-STAT1 | IC50 ([4]; SUM159, Table 1 batch studies): 18.2 µM

O=C(Nc1ccccc1-c1ccn(CC(F)(F)F)n1)c1ccc(OCCN2CCCCC2)cc1 [LLM418-MCF3, 4-(2-(piperidin-1-yl)ethoxy)-N-(2-(1-(2,2,2-trifluoroethyl)-1H-pyrazol-3-yl)phenyl)benzamide]
IC50 [1, 7]: 16 µM | IC50 [1, 5]: 16 µM | IC50 [2, 8]: 169 µM | IC50 [2, 6]: 169 µM

CCCn1ccc(-c2ccccc2NC(=O)c2ccc(OCCN3CCCCC3)cc2)n1 [LLM418-Pr, N-(2-(1-propyl-1H-pyrazol-3-yl)phenyl)-4-(2-(piperidin-1-yl)ethoxy)benzamide]
IC50 [2, 8]: 5.8 µM | IC50 [2, 6]: 5.8 µM

c1ccc2c(c1)nc(-c1ccc(OCCN3CCCCC3)cc1)n1nccc21 [LLM418-SC, 5-(4-(2-(piperidin-1-yl)ethoxy)phenyl)pyrazolo[1,5-c]quinazoline]
IC50 ([2]; Homo sapiens, MDA-MB-231, Table 1 batch studies, 48-hour MTT, read-out: IC50, MDA-MB-231, 48-hour MTT): 11.3 µM | IC50 ([2]; Homo sapiens, MDA-MB-231, Table 3 batch studies, 48-hour MTT, read-out: MDA-MB-231 IC50, 48-hour MTT): 11.3 µM

CC(C)[C@H]1COC(=O)N1c1ccc(C(=O)Nc2ccccc2-c2cc[nH]n2)cc1 [LS-28-2, (S)—N-(2-(1H-pyrazol-3-yl)phenyl)-4-(4-isopropyl-2-oxooxazolidin-3-yl)benzamide]
Percent cells remaining after treatment with 20 μM compound, SUM159 ([1]; Table 1 batch studies): 33%* | Percent cells remaining after treatment with 20 μM compound, SUM159 ([1]; Table 3 batch studies): 33%* | Percent cells remaining after treatment with 20 μM compound, MDA-MB-231 ([2]; Table 1 batch studies, MTT): 21%* | Percent cells remaining after treatment with 20 μM compound, MDA-MB-231 ([2]; Table 3 batch studies, MTT): 21%*

CC1(C)O[C@@H]2[C@@H](CO[C@@]3(Cn4cc(-c5cccc(NC(=O)c6ccc(OCCN7CCCCC7)cc6)c5)nn4)OC(C)(C)O[C@@H]23)O1 [LS-TF-3P]
IC50 [1, 10]: 16 µM | IC50 [2, 12]: 67 µM

CC1(C)O[C@@H]2[C@@H](CO[C@@]3(Cn4cc(-c5ccc(NC(=O)c6ccc(OCCN7CCCCC7)cc6)cc5)nn4)OC(C)(C)O[C@@H]23)O1 [LS-TF-4P]
IC50 [1, 9]: 26.1 µM | IC50 [1, 10]: 26.1 µM | IC50 [2, 11]: 18.4 µM | IC50 [2, 12]: 18.4 µM | IC50 ([3]; Table 3 batch studies (independent from Table 1), read-out: MDA-MB-231 Bone Metastatic IC50): 26.7 µM | IC50 ([4]; Table 1 batch studies): 26.7 µM

O=C(Nc1ccccc1-c1cn([C@@H]2OC[C@@H](O)[C@H](O)[C@H]2O)nn1)c1ccc(OCCN2CCCCC2)cc1 [LS-TX-2, 4-(2-(piperidin-1-yl)ethoxy)-N-(2-(1-((2R,3R,4S,5R)-3,4,5-trihydroxytetrahydro-2H-pyran-2-yl)-1H-1,2,3-triazol-4-yl)phenyl)benzamide·acetic acid]
IC50 Values in Breast Cancer Cell Lines, SUM159 ([1]; Table 1 batch studies): Inactive | SUM159 IC50 [1, 15]: Inactive | IC50 Values in Breast Cancer Cell Lines, MDA-MB-231 [2, 16]: Inactive | MDA-MB-231 IC50 [2, 17]: Inactive

O=C(Nc1cccc(-c2cn([C@@H]3OC[C@@H](O)[C@H](O)[C@H]3O)nn2)c1)c1ccc(OCCN2CCCCC2)cc1 [LS-TX-3, 4-(2-(piperidin-1-yl)ethoxy)-N-(3-(1-((2R,3R,4S,5R)-3,4,5-trihydroxytetrahydro-2H-pyran-2-yl)-1H-1,2,3-triazol-4-yl)phenyl)benzamide·acetic acid]
IC50 Values in Breast Cancer Cell Lines, SUM159 ([1]; Table 1 batch studies): Inactive | SUM159 IC50 [1, 15]: Inactive | IC50 Values in Breast Cancer Cell Lines, MDA-MB-231 [2, 16]: Inactive | MDA-MB-231 IC50 [2, 17]: Inactive

O=C(Nc1ccc(-c2cn([C@@H]3OC[C@@H](O)[C@H](O)[C@H]3O)nn2)cc1)c1ccc(OCCN2CCCCC2)cc1 [LS-TX-4, 4-(2-(piperidin-1-yl)ethoxy)-N-(4-(1-((2R,3R,4S,5R)-3,4,5-trihydroxytetrahydro-2H-pyran-2-yl)-1H-1,2,3-triazol-4-yl)phenyl)benzamide·acetic acid]
IC50 Values in Breast Cancer Cell Lines, SUM159 ([1]; Table 1 batch studies): Inactive | SUM159 IC50 [1, 15]: Inactive | IC50 Values in Breast Cancer Cell Lines, MDA-MB-231 [2, 16]: Inactive | MDA-MB-231 IC50 [2, 17]: Inactive
